From US9738676B2, “Selected macrolides with PDE4-inhibiting activity” (Basilea Pharmaceutica AG, priority 2012, dated 2017) come the findings set out here.

One data set concerns M. catarrhalis QK34. The experiment in a line: MIC determination by broth microdilution. Format: cell-based, Moraxella catharrhalis. The note with it: Moraxella catarrhalis, read-out: MIC (μg/ml) M. catarrhalis QK34. The method, then:
(§1) All MIC values are determined by broth microdilution according to the guidelines by the Clinical and Laboratory Standards Institute (CLSI, Wayne Pa., USA). Staphylococcus aureus ATCC29213 is grown on Müller-Hinton agar (MHA) (Becton Dickinson) and then in cation-adjusted Müller Hinton broth (CaMHB) (Becton Dickinson) for 24 h at 37° C. Streptococcus pyogenes ATCC19615 and Moraxella catharrhalis QK34 are grown on MHA with 2.5% Laked Horse Blood (Oxoid). Liquid cultures in CaMHB+5% horse serum (Sigma) are incubated for 24 h at 35° C. in a 5% CO2 atmosphere. Haemophilus. influenzae 3168 is grown on MHA+2.5% Fildes extract (Oxoid). Liquid cultures are grown in CaMHB+5% Fildes extract at 35° C. in a 5% CO2 atmosphere. Propionibacteria are grown on Wilkins-Chalgren agar (WCA) (Oxoid) for 72 h under anaerobic conditions. Liquid cultures are grown anaerobically in Wilkins-Chalgren broth (WCB) (Oxoid) for 48 h at 35° C. MIC values are obtained by broth microdilution using WCB (Anaerobe Broth MIC, Difco). Microtitre plates are loaded into 7-L GENbox anaerobic incubation jars (BioMerieux) fitted with anaerobic atmosphere generators (BioMerieux) and a Dry Anaerobic Indicator Strip (BBL). Under these conditions, an O2 concentration <0.1% is achieved by 2.5 h, and a CO2 concentration >15% by 24 h.
In general terms: Broth dilution looks for growth in wells or tubes with falling amounts of substance.

Another data set has as its system P. granulosum EG13NS. The experiment in a line: MIC determination by broth microdilution (anaerobic). The note with it: read-out: MIC (μg/ml) P. granulosum EG13NS. Format: cell-based. As for the experimental part: as §1
The nature of data set [1]: Oral bioavailability, pharmacokinetic study in mice. Format: in vivo, mouse. The method, then:
Drug concentrations in blood or plasma are determined as a function of time in pharmacokinetic studies. Mice were treated with the test compound at defined doses. 10 mg/kg is used for oral administration and 1 mg/kg is taken for intravenous administration. Blood or plasma samples are collected at defined time-points and the drug content is determined by LC-MS/MS. The drug concentration is plotted as a function of time and the non-intravenous (oral) and the intravenous area under the curve (AUC) is calculated using the linear trapezoidal rule. The oral bioavailability is then calculated using dose-normalized AUC with the following formula: F[%]=AUCoral/AUCintravenous*100 Blocking of hERG Channel

The next data set relates to S. pyogenes ATCC19615. The experiment in a line: MIC determination by broth microdilution. Format: cell-based. The note with it: Streptococcus pyogenes, read-out: MIC (μg/ml) S. pyogenes ATCC19615. The method, then:
as §1

The next data set concerns S. aureus ATCC29213. The experiment in a line: MIC determination by broth microdilution. Format: cell-based. As to conditions: Staphylococcus aureus, read-out: MIC (μg/ml) S. aureus ATCC29213. The method, then:
as §1

A further data set relates to H. influenzae 3168. The experiment in a line: MIC determination by broth microdilution. Format: cell-based. As to conditions: Haemophilus influenzae, read-out: MIC (μg/ml) H. influenzae 3168. As for the experimental part:
as §1

Another data set addresses hERG channel (Homo sapiens (Human), UniProt Q12809). The experiment in a line: Blocking of hERG channel, whole-cell patch clamp in stably transfected HEK 293 cells. Format: cell-based. As to conditions: HEK 293 cells. In general terms: The hERG channel carries a current that helps repolarise heart muscle cells.
The subject of another data set is PDE4 (U937). The experiment in a line: PDE4 enzyme inhibition, IMAP fluorescence polarization assay. Format: biochemical, human. As for the experimental part: PDE4 is partially purified from undifferentiated human monocytic cells (U937) according to Thorpy et al. 1992 (J. Pharmacol. Exp. Ther. 263: 1195). Cells are grown in Iscove's modified Dulbecco's medium (GIBCO) with 5% foetal bovine serum (GIBCO) and 100 μg/mL penicillin-streptomycin (GIBCO). Cells are broken by sonication and PDE4 is purified by anion-exchange chromatography on DEAE-Sepharose CL-6B (GE Healthcare). […] In addition, PDE4 preparations are validated by inhibition studies with PDE4-specific and unspecific PDE inhibitors.
PDEs specifically hydrolyze cAMP and/or cGMP and release the product AMP and/or GMP. The potency of PDE inhibition by test compounds is determined with a commercially available in vitro enzymatic assay (IMAP® Fluorescence Polarization assay, Molecular Devices Corp.). Fluorescently labeled cAMP or cGMP is hydrolyzed by PDE preparations and in a second step, binding of labeled product to a large binding partner allows product detection by fluorescence polarization (FP) measurements.
Stock solutions of the test compounds are made in DMSO and diluted in assay buffer (10 mM Tris-HCl, 10 mM MgCl2, 0.1% BSA 0.05% NaN3, pH 7.2) to the desired concentrations. The solutions used in the assay contain the test compound in assay buffer with 2% DMSO. 5 μl of this pre-diluted test compound solution are mixed with 10 μl of substrate (FL-cAMP or FL-cGMP) at concentrations recommended by the manufacturer and with 5 μl of appropriately diluted PDE. 5 μl of reaction buffer with 2% DMSO are used for control reactions. […] After incubation for 90 minutes at room temperature, 60 μl of binding reagent are added as specified by the manufacturer. Binding is allowed to proceed for 30 minutes and fluorescence polarization is measured. Dose dependence of PDE inhibition is measured by assaying dilution series of test compounds. IC50 values are determined from the measured activities by curve fitting.

The test system of another data set is bacteria. The experiment in a line: Antibacterial activity. Format: cell-based. The method, then:
as §1

The subject of a further data set is P. acnes EG7NS. The experiment in a line: MIC determination by broth microdilution (anaerobic). Format: cell-based, Propionibacterium acnes. As to conditions: Cutibacterium acnes, EG7NS; read-out: MIC (μg/ml) P. acnes EG7NS. The method, then:
as §1

Some results are limits rather than exact numbers.

Sequence of hERG channel (Q12809 whole entry): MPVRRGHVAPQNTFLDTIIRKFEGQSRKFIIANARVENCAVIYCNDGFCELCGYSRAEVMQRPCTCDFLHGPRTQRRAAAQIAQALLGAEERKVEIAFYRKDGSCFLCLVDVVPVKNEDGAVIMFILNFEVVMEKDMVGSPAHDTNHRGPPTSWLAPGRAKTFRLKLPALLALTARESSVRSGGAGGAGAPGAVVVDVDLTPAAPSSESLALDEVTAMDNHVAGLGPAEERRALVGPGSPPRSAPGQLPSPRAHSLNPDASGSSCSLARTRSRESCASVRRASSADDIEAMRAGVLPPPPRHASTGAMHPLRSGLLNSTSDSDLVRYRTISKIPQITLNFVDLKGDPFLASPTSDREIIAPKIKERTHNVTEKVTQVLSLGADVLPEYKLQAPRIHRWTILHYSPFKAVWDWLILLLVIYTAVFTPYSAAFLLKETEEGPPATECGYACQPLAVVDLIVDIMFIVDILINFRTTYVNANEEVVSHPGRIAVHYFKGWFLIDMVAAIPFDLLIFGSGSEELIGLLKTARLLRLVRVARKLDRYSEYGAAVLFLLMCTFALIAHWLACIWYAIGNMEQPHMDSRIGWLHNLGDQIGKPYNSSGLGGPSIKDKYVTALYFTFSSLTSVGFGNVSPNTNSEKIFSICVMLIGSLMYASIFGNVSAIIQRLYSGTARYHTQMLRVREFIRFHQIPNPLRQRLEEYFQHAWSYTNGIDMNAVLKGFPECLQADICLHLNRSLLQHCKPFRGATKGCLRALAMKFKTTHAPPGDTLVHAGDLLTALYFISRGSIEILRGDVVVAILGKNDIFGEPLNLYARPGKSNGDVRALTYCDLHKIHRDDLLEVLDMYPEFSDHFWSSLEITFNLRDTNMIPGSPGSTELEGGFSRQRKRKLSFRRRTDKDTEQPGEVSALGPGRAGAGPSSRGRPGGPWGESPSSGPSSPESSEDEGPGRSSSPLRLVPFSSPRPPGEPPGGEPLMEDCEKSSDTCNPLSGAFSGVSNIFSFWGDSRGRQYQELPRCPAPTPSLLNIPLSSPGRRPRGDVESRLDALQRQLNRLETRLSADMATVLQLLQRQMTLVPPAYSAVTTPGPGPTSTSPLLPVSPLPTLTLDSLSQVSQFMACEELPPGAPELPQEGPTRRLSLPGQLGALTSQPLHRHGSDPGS

By IC50 is commonly meant the concentration that inhibits the measured activity by half. Take `CC[C@H]1OC(=O)[C@H](C)[C@@H](O[C@H]2C[C@@](C)(OC)[C@@H](O)[C@H](C)O2)[C@H](C)[C@@H](O[C@@H]2O[C@H](C)C[C@H](N(C)C(=O)N3CCOCC3)[C@H]2O)[C@](C)(OC)C[C@@H](C)C(=O)[C@H](C)[C@H]2[C@H](SCCOc3cc(C(=O)Nc4c(Cl)cncc4Cl)ccc3OC)C(=O)O[C@@]21C` [Example 15 WO2009/106419]: the MIC in the data set with M. catarrhalis QK34, with P. granulosum EG13NS, in the data set on S. pyogenes ATCC19615, in the data set with S. aureus ATCC29213, in the data set on H. influenzae 3168 and in the data set on P. acnes EG7NS was over 32 µg/mL in each case. Besides, the “oral bioavailability (in words)” value in data set [1] is given as “rather low”. Moreover, in data set [1] (in vivo, mouse, 10 mg/kg oral, 1 mg/kg intravenous, dose-normalized AUC, read-out: Oral bioavail. (mouse F %)), the bioavailability came out at 4.6%. Moreover, on hERG channel (1 μM), the “Blocking of hERG @ 1 μM (% remaining tail current)” value was determined as 100%. For the same molecule, at hERG channel (10 μM), the “Blocking of hERG @ 10 μM (% remaining tail current)” value came to 98.6%. In addition, the “PDE4-inhibiting activity (in words)” value in the data set with PDE4 (U937) is on record as “excellent”. This molecule gave an IC50 against PDE4 (U937) (PDE4 partially purified from U937 cells) of 0.071 µM. For the same molecule, in the data set with bacteria, the “antibacterial activity (in words)” value is reported as “strongly reduced”.
